These are literature values, as cited in patent US10617673B2, “Cannabinoid receptor antagonists/inverse agonists useful for treating metabolic disorders, including obesity and diabetes” (Jenrin Discovery, LLC, priority 2012, dated 2020).

The conditions of the series: type 2 diabetes patients not on other anti-diabetic medications, after six months, baseline value 7.9.

Turning to `Cc1c(C(=O)NN2CCCCC2)nn(-c2ccc(Cl)cc2Cl)c1-c1ccc(Cl)cc1` [rimonabant], the HbA1c levels lowered is given as 0.8%.
